Source: publication PMC9051119 (RSC Advances, 2020)

What was measured:
[1] = ref unpublished data, cited from earlier work
[2] = weakly basic APIs; cited from earlier work
[3] = Equilibrium solubility in model lipid-based formulations; conditions: for Miscibility in MC-SEDDS (MCF) / Miscibility in LC-SEDDS (LCF): result in words; for Miscibility in LC-SEDDS (LCF) / Solubility in LC-SEDDS: long chain SEDDS
[4] = Long term storage stability; conditions: >6 months at −20 °C

Question: With `C(=Cc1ccccc1)CN1CCN(C(c2ccccc2)c2ccccc2)CC1.CCCCC(CC)COC(=O)CC(C(=O)OCC(CC)CCCC)S(=O)(=O)O` [Cinnarizine docusate] as the compound, how does the “Miscibility in LC-SEDDS” value ([1]; long chain SEDDS) read?
Answer: miscible

Question: And the “Miscibility in MC-SEDDS” value ([1]; medium chain SEDDS)?
Answer: miscible

Question: Which pKa [2] does the source give for `C(=C\c1ccccc1)/CN1CCN(C(c2ccccc2)c2ccccc2)CC1` [Compound 1, cinnarizine] here?
Answer: > 8

Question: For `C(=C\c1ccccc1)/CN1CCN(C(c2ccccc2)c2ccccc2)CC1` [Compound 1b, cinnarizine], which “Miscibility in MC-SEDDS (MCF)” value ([3]; medium chain SEDDS) is on record?
Answer: miscible

Question: With `C(=C\c1ccccc1)/CN1CCN(C(c2ccccc2)c2ccccc2)CC1` [Compound 1c, cinnarizine] as the compound, how does the “Miscibility in MC-SEDDS (MCF)” value ([3]; medium chain SEDDS) read?
Answer: miscible

Question: With `C(=C\c1ccccc1)/CN1CCN(C(c2ccccc2)c2ccccc2)CC1` [Compound 1d, cinnarizine] as the compound, how does the “Miscibility in LC-SEDDS (LCF)” value [3] read?
Answer: miscible

Question: And the “Miscibility in MC-SEDDS (MCF)” value ([3]; medium chain SEDDS)?
Answer: miscible

Question: With `C(=C\c1ccccc1)/CN1CCN(C(c2ccccc2)c2ccccc2)CC1` [Compound 1g, cinnarizine] as the compound, how does the “Solubility in LC-SEDDS” value ([3]; value of the main text) read?
Answer: 17 mg/g

Question: For `C(=C\c1ccccc1)/CN1CCN(C(c2ccccc2)c2ccccc2)CC1` [Compound 1h, cinnarizine], which “Crystallization after long term storage” value [4] is on record?
Answer: showed signs of crystallization

Question: With `C(=C\c1ccccc1)/CN1CCN(C(c2ccccc2)c2ccccc2)CC1` [Compound 1i, cinnarizine] as the compound, how does the “Miscibility in MC-SEDDS (MCF)” value ([3]; medium chain SEDDS) read?
Answer: miscible

Question: Which “Miscibility in MC-SEDDS (MCF)” value ([3]; medium chain SEDDS) does the source give for `C(=C\c1ccccc1)/CN1CCN(C(c2ccccc2)c2ccccc2)CC1` [Compound 1j, cinnarizine] here?
Answer: miscible

Question: Which “Miscibility in LC-SEDDS (LCF)” value [3] does the source give for `C(=C\c1ccccc1)/CN1CCN(C(c2ccccc2)c2ccccc2)CC1` [Compound 1k, cinnarizine] here?
Answer: miscible

Question: What about the “Miscibility in MC-SEDDS (MCF)” value ([3]; medium chain SEDDS) of the same compound?
Answer: miscible

Question: For `CCCCN(CCCC)CC(O)c1cc(Cl)cc2c1-c1ccc(Cl)cc1/C2=C/c1ccc(Cl)cc1` (stereo not shown) [Compound 2, lumefantrine], which pKa [2] is on record?
Answer: > 8

Question: For `CCCCN(CCCC)CC(O)c1cc(Cl)cc2c1-c1ccc(Cl)cc1/C2=C/c1ccc(Cl)cc1` (stereo not shown) [Compound 2h, lumefantrine], which “LBF solubility enhancement compared to the free base” value ([3]; compared to the free base form) is on record?
Answer: up to 18 fold

Question: And the “Miscibility in LC-SEDDS (LCF)” value [3]?
Answer: miscible

Question: What about the “Miscibility in MC-SEDDS (MCF)” value ([3]; medium chain SEDDS) of the same compound?
Answer: miscible

Question: For `CCCCN(CCCC)CC(O)c1cc(Cl)cc2c1-c1ccc(Cl)cc1/C2=C/c1ccc(Cl)cc1` (stereo not shown) [Compound 2k, lumefantrine], which “Solubility in LC-SEDDS” value ([3]; value of the main text) is on record?
Answer: 53 mg/g

Question: What about the “Solubility in MC-SEDDS” value ([3]; medium chain SEDDS, value of the main text) of the same compound?
Answer: 66 mg/g
